Consider 15 compounds from paper PMC6211276, “Computer-aided molecular design of pyrazolotriazines targeting glycogen synthase kinase 3” (Journal of Enzyme Inhibition and Medicinal Chemistry, 2018).

In series [1] the target is T1, GSK-3β (Homo sapiens, UniProt P49841). The series can be described thus: Inhibition of GSK-3β (Kinase-Glo luminescent assay). Format: biochemical. Also on record: purchased Millipore (Millipore Ibérica SAU). Particulars: for GSK-3 inhibition at a fixed compound concentration: fixed compound concentration of 10 μM; for IC50: mean of three independent determinations, 1 μM ATP. As for the experimental part:
Human recombinant GSK-3β and the pre-phosphorylated polypeptide substrate were purchased from Millipore (Millipore Ibérica SAU). Kinase-Glo Luminescent Kinase Assay was obtained from Promega (Promega Biotech Ibérica, SL)[29]. ATP and all other reagents were from Sigma Aldrich (St. Louis, MO). Assay buffer contained 50 mM HEPES (pH 7.5), 1 mM EDTA, 1 mM EGTA, and 15 mM magnesium acetate.
The method of Baki et al. was followed to analyse the inhibition of GSK-3β[30]. Kinase-Glo assays were performed in assay buffer using black 96-well plates. In a typical assay, 10 μL (10 μM) of test compound (dissolved in dimethyl sulfoxide [DMSO] at 1 mM concentration and diluted in advance in assay buffer to the desired concentration) and 10 μL (20 ng) of enzyme were added to each well followed by 20 μL of assay buffer containing 25 μM substrate and 1 μM ATP. […] After 30 min incubation at 30 °C, the enzymatic reaction was stopped with 40 μL of Kinase-Glo reagent. Glow-type luminescence was recorded after 10 min using a FLUOstar Optima (BMG Labtechnologies GmbH, Offenburg, Germany) multimode reader. The activity is proportional to the difference of the total and consumed ATP. The inhibitory activities were calculated based on maximal activities measured in the absence of inhibitor.
A general note: Kinase-Glo measures the ATP left after a reaction by luminescence.

A short description of series [2]: In vitro parallel artificial membrane permeability assay (PAMPA-BBB). The note with it: for Papp at 4 h: pig, PAMPA, pH 7.4; for BBB prediction: predictive penetration in the CNS from PAMPA-BBB Pe; for ability to cross the BBB by passive permeation: prediction from PAMPA-BBB Pe. As for the experimental part:
Prediction of the brain penetration was evaluated using a parallel artificial membrane permeability assay (PAMPA). Ten commercial drugs, phosphate buffer saline solution at pH 7.4 (PBS), ethanol, and dodecane were purchased from Sigma Aldrich, Across organics and Fluka. […] Filter PDVF membrane units (diameter 30 mm, pore size 0.45 μm) from Symta were used to filter the samples. A 96-well plate UV, (Thermoscientific, Varioskan Lux multimode microplate reader) was used for the UV measurements. […] Then 100 μL of this compound stock solution was taken, and 1400 μL of ethanol and 3500 μL of PBS pH 7.4 buffer were added to reach 30% of ethanol concentration in the experiment. These solutions were filtered. The acceptor 96-well microplate was filled with 180 μL of PBS:ethanol (70:30). The donor 96-well plate was coated with 4 μL of porcine brain lipid in dodecane (20 mg mL^−1), and after 5 min, 180 μL of each compound solution was added. Then 1−2 mg of every compound to be determined for their ability to pass the brain barrier were dissolved in 1500 μL of ethanol and 3500 μL of PBS pH 7.4 buffer, filtered, and then added to the donor 96-well plate. […] During this time, the compounds diffused from the donor plate through the brain lipid membrane into the acceptor plate. After incubation, the donor plate was removed. The concentration of compounds and commercial drugs in the acceptor and the donor wells was determined by UV plate reader. Every sample was analysed at three to five wavelengths, in three wells and in three independent runs. […] Ten quality control compounds (previously mentioned) of known BBB permeability were included in each experiment to validate the analysis set.

In series [3] the target is T1, GSK-3β. Nature of the series: Kinetic studies on GSK-3β (ADP-Glo Kinase Assay, varying ATP). The series is classed as biochemical. Particulars: inhibitor at 0.5 and 1 μM, ATP 1 to 50 μM, GS-2 constant at 12.5 μM; Lineweaver–Burk. As for the experimental part:
To investigate the inhibitory mechanism of compounds 5 on GSK-3β, several kinetic experiments were performed using the ADP-Glo Kinase Assay. Kinetic experiments varying both ATP (from 1 to 50 μM) and the inhibitor (at 0.5 and 1 μM) concentrations were performed, while the concentration of GS-2 was kept constant at 12.5 μM.
A general note: ADP-Glo turns the ADP formed in a reaction into a luminescent signal.

Another series relates to SH-SY5Y cells. Nature of the series: Okadaic acid-induced tau hyperphosphorylation cell model (MTT cell viability). The note with it: for cell viability (MTT test) in OA-induced neurodegeneration cell model: compound 10 µM for 1 h, then OA 30 nM for 24 h. Format: cell-based, human. As for the experimental part:
Human SH-SY5Y cells were grown in DMEM supplemented with 10% FBS and 1% penicillin/streptomycin at 37 °C and 5% CO2 in an incubator. SH-SY5Y cells were seeded onto 96-well plate at 60.000 cells per well. 48 h later, cells were pre-incubated with the compounds at the desired concentration for 1 h and after that time okadaic acid (OA) (Sigma Aldrich, catalogue no: 09381) was added at a concentration of 30 nM and incubated for another 24 h. Afterwards, cells were incubated with 0.5 mg mL^−1 MTT solution for at least 4 h at 37 °C and 5% CO2. Then culture media was removed and the formazan crystals attached to the bottom of the plate were dissolved with 200 µL of DMSO. Finally, UV-absorbance was measured at 595 nm in a microplate reader (Varioskan Flash Microplate reader, Thermo Scientific).

The conditions of series [4]: PAMPA-BBB, reported permeability; cited from earlier work. For orientation: The PAMPA barrier holds no transporters, so it reflects passive diffusion.

Broadly, the Papp is a coefficient for how fast a substance crosses the barrier. Lower therefore signals slow passage. For orientation: melting point means the temperature of the solid-liquid transition. By IC50 is commonly meant the concentration at which inhibition is half-maximal. A high value points to weaker potency in that assay.

T1 sequence (P49841 whole entry): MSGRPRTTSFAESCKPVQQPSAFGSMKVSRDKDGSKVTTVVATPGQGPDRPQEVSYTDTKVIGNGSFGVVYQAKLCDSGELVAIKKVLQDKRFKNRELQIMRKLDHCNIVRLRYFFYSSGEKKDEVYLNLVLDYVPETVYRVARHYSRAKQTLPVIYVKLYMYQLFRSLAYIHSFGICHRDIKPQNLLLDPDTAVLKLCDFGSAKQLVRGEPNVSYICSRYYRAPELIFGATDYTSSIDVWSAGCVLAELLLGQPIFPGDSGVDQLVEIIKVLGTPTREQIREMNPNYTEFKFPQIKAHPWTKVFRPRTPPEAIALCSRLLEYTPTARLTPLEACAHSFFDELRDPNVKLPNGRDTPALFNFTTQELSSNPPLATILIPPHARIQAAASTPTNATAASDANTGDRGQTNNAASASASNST

Regarding `O=c1[nH]nnc2c1cnn2-c1ccccc1` [4a], on GSK-3β [1], the “GSK-3 inhibition at a fixed compound concentration” value is “inactive”.
With `O=c1[nH]nnc2c1cnn2-c1ccc(F)cc1` [4e], the “GSK-3 inhibition at a fixed compound concentration” value at GSK-3β [1] is “inactive”.
On to `CCOC(=O)c1c2nn[nH]c(=O)c2nn1-c1ccccc1` [5a, ethyl 4-oxo-6-phenyl-4,6-dihydro-3H-pyrazolo[4,3-d][1,2,3]triazine-7-carboxylate], for which the melting point was 191.5 to 193 °C. In addition, in series [2], the Papp at 4 h was 1.1 ± 0.6 ×10⁻⁶ cm/s and the BBB prediction entry was “CNS−”. Also, on GSK-3β [1], the IC50 was 4000 ± 200 nM.
`CCOC(=O)c1c2nn[nH]c(=O)c2nn1-c1ccc(C)cc1` [5b, ethyl 4-oxo-6-(p-tolyl)-4,6-dihydro-3H-pyrazolo[4,3-d][1,2,3]triazine-7-carboxylate] showed a melting point of 193 to 196 °C. In addition, the “type of inhibition on GSK-3” value on GSK-3β [3] is “ATP-competitive”. Also, in series [2], the Papp at 4 h came to 2.3 ± 0.3 ×10⁻⁶ cm/s and the BBB prediction result was “CNS+/−”. The “cell viability (MTT test) in OA-induced neurodegeneration cell model” value (“cell viability (MTT test)” for short) with SH-SY5Y cells was “able to increase the cell viability”. The IC50 against GSK-3β [1] is 900 ± 100 nM.
With `CCOC(=O)c1c2nn[nH]c(=O)c2nn1-c1ccc(OC)cc1` [5c, ethyl 6-(4-methoxyphenyl)-4-oxo-4,6-dihydro-3H-pyrazolo[4,3-d][1,2,3]triazine-7-carboxylate], the melting point was 194 °C (dec.). Also, in series [2], the Papp at 4 h was 1.6 ± 0.5 ×10⁻⁶ cm/s and the BBB prediction result is reported as “CNS+/−”. At GSK-3β [1], this compound gave an IC50 of 1700 ± 300 nM.
Turning to `CCOC(=O)c1c2nn[nH]c(=O)c2nn1-c1ccc(Cl)cc1` [5e, ethyl 6-(4-chlorophenyl)-4-oxo-4,6-dihydro-3H-pyrazolo[4,3-d][1,2,3]triazine-7-carboxylate], the melting point is 198 °C (dec.). Further, in series [2], the Papp at 4 h came out at 2.9 ± 0.7 ×10⁻⁶ cm/s, the “ability to cross the BBB by passive permeation” value (“ability to cross the BBB” below) is “in the limit of a positive prediction” and the BBB prediction entry was “CNS+/−”. The IC50 at GSK-3β [1] was 3300 ± 300 nM.
With `CCOC(=O)c1c2nn[nH]c(=O)c2nn1-c1ccc(Br)cc1` [5f, ethyl 6-(4-bromophenyl)-4-oxo-4,6-dihydro-3H-pyrazolo[4,3-d][1,2,3]triazine-7-carboxylate], the melting point is 195 °C (dec.). Moreover, in series [2], the Papp at 4 h was found to be 3.2 ± 0.1 ×10⁻⁶ cm/s, the “ability to cross the BBB” value is given as “would be able to cross the BBB by passive permeation” and the BBB prediction entry is listed as “CNS+ (CNS + when they present a permeability >3.1 × 10^−6 cm s^−1)”. Besides, the “cell viability (MTT test)” value in the series on SH-SY5Y cells is reported as “able to increase the cell viability”. The compound further displayed an IC50 against GSK-3β [1] of 1400 ± 400 nM.
As to `CCOC(=O)c1c2nn[nH]c(=O)c2nn1-c1ccc(I)cc1` [5g, ethyl 6-(4-iodophenyl)-4-oxo-4,6-dihydro-3H-pyrazolo[4,3-d][1,2,3]triazine-7-carboxylate], the melting point is 198 °C (dec.). Further, in series [2], the Papp at 4 h stood at 5 ± 1 ×10⁻⁶ cm/s, the “ability to cross the BBB” value is “would be able to cross the BBB by passive permeation” and the BBB prediction entry is recorded as “CNS+ (CNS + when they present a permeability >3.1 × 10^−6 cm s^−1)”. Moreover, the “cell viability (MTT test)” value in the series on SH-SY5Y cells was “able to increase the cell viability”. On GSK-3β [1], the IC50 stood at 800 ± 200 nM.
In series [2], `Cn1c(=O)c2c(ncn2C)n(C)c1=O` [Caffeine, reference compound] returned a Papp at 4 h of 1.1 ± 0.4 ×10⁻⁶ cm/s.
The same measure, in the same setting: under `CNCCCN1c2ccccc2CCc2ccccc21` [Desipramine, reference compound] stands 10.4 ± 0.1 ×10⁻⁶ cm/s; under `CCn1cc(C(=O)O)c(=O)c2cc(F)c(N3CCNCC3)nc21` [Enoxacine, reference compound], 1.1 ± 0.6 ×10⁻⁶ cm/s.
As to `C=C1[C@@H](O)[C@@H]2O[C@]3(CC[C@H](/C=C/[C@@H](C)[C@@H]4CC(C)=C[C@@]5(O[C@H](C[C@@](C)(O)C(=O)O)CC[C@H]5O)O4)O3)CC[C@H]2O[C@@H]1[C@@H](O)C[C@H](C)[C@H]1O[C@@]2(CCCCO2)CC[C@H]1C` [OA, okadaic acid, reference compound], the “decrease in cell viability” value with SH-SY5Y cells (OA at 30 nM, MTT) was “higher than 70%”.
Turning to `CN1C(C(=O)Nc2ccccn2)=C(O)c2ccccc2S1(=O)=O` [Piroxicam], the Pe bibli. in series [4] was 2.5 10^−6 cm s^−1.
The compound `CN(C)CCCN1c2ccccc2Sc2ccccc21` [Promazine, reference compound] yielded a Papp at 4 h in series [2] of 8.4 ± 0.3 ×10⁻⁶ cm/s. The Pe bibli. in series [4] was 8.8 10^−6 cm s^−1.
On to `Cn1sc(=O)n(Cc2ccccc2)c1=O` [TDZD-8, reference compound], for which the “cell viability (MTT test)” value in the series on SH-SY5Y cells is recorded as “increase the cell viability”.
